Results on two compounds are retold here after US12528846B2, “BH4 stabilized peptides and uses thereof” (Dana-Farber Cancer Institute, Inc., priority 2013, dated 2026).

Entries after “also recorded” stand apart in the source; their conditions may differ. Positions of bridges follow the written chain, without caps; N, C: chain ends. Non-standard residues stand in square brackets, D forms with d. Residues, ends and D or L forms follow the SMILES beside them. S5 = C=CCCC[C@](C)(N)C(=O)O; Nle = CCCC[C@H](N)C(=O)O

The target in data set [1] is T1, Recombinant BAX (Homo sapiens, UniProt Q07812).
T1 construct: made in house
T1 sequence (Q07812 whole entry): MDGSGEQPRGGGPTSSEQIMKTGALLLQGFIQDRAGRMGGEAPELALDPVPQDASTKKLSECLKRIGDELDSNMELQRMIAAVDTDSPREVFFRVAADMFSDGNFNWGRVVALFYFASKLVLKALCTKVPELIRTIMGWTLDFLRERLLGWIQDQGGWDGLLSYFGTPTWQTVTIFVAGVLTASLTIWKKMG
The data set is described as follows: Liposomal ANTS/DPX release, heat-induced BAX activation. The data set is classed as biochemical. The note with it: 500 nM BAX, liposomes, 37° C.

Data set [2] addresses T1, Recombinant BAX. The data set is described as follows: Liposomal ANTS/DPX release, BIM SAHBA-triggered BAX activation. Type of data set: biochemical. Conditions: 1.5 μM BIM SAHBA, 0.75 μM BAX, variety of peptide concentrations. As for the experimental part: In these experiments, the BCL-2 BH4 SAHBA and unmodified BCL-2 BH4 peptide were incubated with 1.5 μM BIM SAHBA (Gavathiotis et al., Nature 455:1076-1081, 2008), 0.75 μM recombinant BAX protein, and 5 μL liposomes loaded with the ANTS and DPX (described above) at a variety of different concentrations.
A complete panel of BCL-2 BH4 SAHBA alanine and glutamine point mutants (0.75 μM) were screened for inhibition of BIM SAHBA (0.75 μM)-triggered BAX activation (0.75 μM) using the liposome release assay described above. The data were normalized to a 100% percent positive control level of liposome release achieved using BIM SAHBA and BAX alone, after correction for any intrinsic fluorescence detected for each FITC-labeled BCL-2 BH4 SAHB (0%). […] The alanine scanning data are also useful for designing the placement of staples in the BCL-2 BH4 peptides.

For data set [3], the target named is T1, Recombinant BAX. The data set is described as follows: BAX 6A7 immunoprecipitation (N-terminal conformational activation). The data set is classed as biochemical. The note with it: 1 μM BAX, liposomes, 1 μM BIM SAHB, peptide 0-2.0 μM, 30 min. As for the experimental part:
An additional experiment was performed to determine whether BCL-2 BH4 SAHB binding would be capable of preventing the N-terminal unfolding characteristic of activated BAX. In this experiment, recombinant BAX was incubated with liposomes and a molar equivalent of BIM SAHB in the presence of increasing amounts of BCL-2 BH4 SAHBA or BCL-2 BH4 SAHBA L23A. After a 30 min pre-incubation period to allow for activation to proceed, the liposomal mixtures were subjected to immunoprecipitation with the BAX 6A7 antibody (Santa Cruz), which specifically recognizes the N-terminal epitope on BAX (residues 12-24) that is exposed during activation (Hsu et al., 1997). Immunoprecipitated protein was resolved by electrophoresis and immunoblotted with an antibody specific for BAX. […] Importantly, the L23A mutant version of the BH4 peptide, which was shown in the liposomal release assay to disrupt its inhibitory activity, had no effect on BAX 6A7 reactivity. The BAX 6A7 immunoprecipitation was carried out as follows. Recombinant BAX (1 μM) was mixed with liposomes and 1 μM BIM SAHB in the presence of increasing doses of BCL-2 BH4 SAHBA or BCL-2 BH4 SAHBA L23A (0 μM, 0.25 μM, 0.5 μM, 1.0 μM, and 2.0 μM). Following a 30 min incubation at room temperature, the mixture was immunoprecipitated with a-BAX 6A7 (Santa Cruz) and resolved by electrophoresis. […]

Data set [4] addresses T1, Recombinant BAX. The data set is described as follows: HXMS of BH4 SAHBs after pre-equilibration with recombinant BAX protein. The data set is classed as binding. The note with it: 15-minute pre-equilibration, 1:2 BAX protein to BH4 SAHB molar ratio. As for the experimental part:
(§1) The structural stability of the BCL-2 BH4 staple-scan panel of SAHBs was determined by hydrogen/deuterium mass spectrometry (HXMS). In these experiments, the BH4 SAHBs were labeled with deuterium for 2 seconds, 5 seconds, 10 seconds, 1 minute, 10 minutes, and 1 hour, followed by quenching with cold phosphate buffer (pH 2.5), and then immediately subjected to desalting and injection on a LCT Premier Mass Spectrometer (Waters Corporation). The relative uptake of deuterium was determined for each BH4 SAHB by dividing the mass of the corresponding undeuterated control. Labeling was performed with the BH4 SAHB peptide alone and following a 15-minute pre-equilibration with recombinant BAX protein (purified as previously described in Walensky et al. (Mol. Cell 24:199-210, 2006) and Gavathiotis et al. (Nature 455:1076-1081, 2008)) at a 1:2 BAX protein to BH4 SAHB peptide molar ratio.

Data set [5] can be described thus: Hydrogen/deuterium mass spectrometry (HXMS) of BH4 SAHB peptide alone (structural stability). Type of data set: physicochemical. The note with it: deuterium labeling 2 seconds to 1 hour. Here is the method:
as §1

Data set [6] has as its target T1, Recombinant BAX. The data set can be described thus: HXMS of recombinant BAX with or without BCL-2 BH4 SAHBA. The data set is classed as binding. Conditions: two molar excess of peptide, 10 seconds to 2 hours. Here is the method: In additional studies, recombinant BAX protein was labeled with deuterium in the presence or absence of a two molar access of BCL-2 BH4 SAHBA for 10 seconds, 1 minute, 10 minutes, and 2 hours. Following the corresponding incubation period in D20 buffer, each sample was quenched with ice-cold phosphate buffer (pH 2.5) and injected on a custom Waters NanoACQUITY UPLC HDX Manager for analysis as described in Wales et al. (Anal. Chem. 80:6815-6820, 2008). Mass spectra were obtained with a Synapt G2 mass spectrometer (Waters Corporation) and analyzed with the DynamX software package (Waters Corporation). The data shown in FIG. 15A are the average of two duplicate experiments, where the relative difference (Da) shown for each peptide is equivalent to the relative deuterium uptake of the corresponding peptide in the BAX alone control minus the relative deuterium uptake of the peptide in the BCL-2 BH4 SAHBA-bound BAX sample. A significant relative difference is established as 0.4 Da. […] A significant relative difference in uptake is observed in the region of BAX al and the loop between α1 and α2, indicative of structural stabilization of this region of BAX protein as a result of BCL-2 BH4 SAHBA binding.

The next data set concerns the target T2, endogenous BAX (Homo sapiens, UniProt Q07812).
T2 construct: endogenous in cells; host or cells: HeLa
The data set can be described thus: Streptavidin pull-down of biotinylated SAHB from HeLa cell lysates. Type of data set: binding. The note with it: 20 μM biotinylated peptide, 16 hrs at 4° C. As for the experimental part:
HeLa cell lysates (0.5 mg) were incubated with vehicle (DMSO), biotinylated BCL-2 BH4 SAHBA (20 μM), or BCL-2 BH4 SAHBA L23A (20 μM) for 16 hrs at 4° C. prior to addition of high-capacity streptavidin agarose resin (Thermo Scientific). After three successive washes, associated protein was eluted from the resin into LDS sample buffer and analyzed by Western blot with the anti-BAX N20 antibody (Santa Cruz). […] The immunoblot in FIG. 19B is representative of three independent experiments.

The target in data set [7] is T1, Recombinant BAX. The data set can be described thus: HXMS of recombinant BAX with liposomes, BIM SAHB with or without BCL-2 BH4 SAHBA. Conditions: molar equivalent of BIM SAHB plus two molar excess of peptide. The data set is classed as biochemical. As for the experimental part:
Recombinant BAX protein was pre-equilibrated for 15 min with liposomes in the presence or absence of a molar equivalent of BIM SAHB (FIG. 15B) or a molar equivalent of BIM SAHB and a two molar excess of BCL-2 BH4 SAHBA (FIG. 15C), and then labeled with deuterium for 10 seconds, 1 minute, 10 minutes, and 2 hours. Following the corresponding incubation period in D20 buffer, each sample was quenched with ice-cold guanidine chloride buffer (pH 2.6) and then subjected to proteolysis on ice for 5 minutes. The samples were next injected on a custom Waters NanoACQUITY UPLC HDX Manager for analysis as described above. Mass spectra were obtained with a Synapt G2 mass spectrometer (Waters Corporation) and analyzed with the DynamX software package (Waters Corporation). The data shown in FIG. 15B are the duplicate of two experiments, where the relative difference (Da) shown for each BAX peptide fragment is equivalent to the relative deuterium uptake of the peptide in the BIM SAHB-activated BAX sample minus the relative deuterium uptake of the corresponding peptide in the BAX alone control. […] Mass spectra were obtained with a Synapt G2 mass spectrometer (Waters Corporation) and analyzed with the DynamX software package (Waters Corporation). […]

For data set [8], the system named is BAX-overexpressing HeLa cells. The data set is described as follows: Viability of transfected HeLa cells treated with staurosporine (CellTiter-Glo). Type of data set: cell-based. The note with it: 325 nM staurosporine, 24-hour treatment. Here is the method: Viability of the transfected cells subjected to 24-hour treatment with 325 nM staurosporine or no treatment with staurosporine was determined by addition of CellTiter-Glo reagent (Promega). The data shown in FIG. 20A are representative of three independent experiments.
This BCL-2-based rescue is negated upon co-expression of BAX with the L23A mutant form of BCL-2 (FIG. 20A).

T2 sequence (Q07812 whole entry): as above

In the case of `CCCC[C@H](NC(=O)[C@@H](NC(=O)[C@@H](NC(=O)[C@H](CCC(=O)O)NC(C)=O)[C@@H](C)CC)C(C)C)C(=O)N[C@@H](CCCCN)C(=O)N[C@@H](Cc1ccc(O)cc1)C(=O)N[C@H](C(=O)N[C@@H](Cc1c[nH]cn1)C(=O)N[C@@H](Cc1ccc(O)cc1)C(=O)N[C@@H](CCCCN)C(=O)N[C@@H](CC(C)C)C(=O)N[C@@H](CO)C(=O)N[C@@]1(C)CCCC=CCCC[C@@](C)(C(=O)N[C@@H](Cc2c[nH]c3ccccc23)C(=O)N[C@@H](CC(=O)O)C(=O)N[C@@H](C)C(N)=O)NC(=O)[C@H](Cc2ccc(O)cc2)NC(=O)CNC(=O)[C@H](CCCNC(=N)N)NC1=O)[C@@H](C)CC` [BCL-2 BH4 SAHBA] (Ac-EIV[Nle]KYIHYKLS[S5]RGY[S5]WDA-NH2; staple 13-17; N-terminus and C-terminus assumed), on Recombinant BAX [1], the “heat-induced activation of BAX and BAX-mediated poration” value is “dose-responsively decreased”. The “BAX activation in response to BIM SAHBA treatment (liposomal poration)” value on Recombinant BAX [2] is on record as “dose-responsively decreased; also recorded: dose-responsively blocks”. For the same compound, the “BAX 6A7 reactivity (BIM SAHB-triggered BAX activation)” value at Recombinant BAX [3] was “dose-responsively reduces; also recorded: dose-responsively inhibited”. Further, the “deuterium uptake of BH4 SAHB upon addition of recombinant BAX protein” value at Recombinant BAX [4] is given as “reduced uptake”. In addition, the “relative deuterium uptake of BH4 SAHB peptide alone” value in data set [5] is given as “markedly reduced uptake”. In addition, the “deuterium uptake by BAX protein upon peptide engagement” value on Recombinant BAX [6] was “decrease in deuterium uptake”. For the same compound, the entries for the “pull-down of BAX from HeLa cell lysates” value at endogenous BAX and at endogenous BAX (listed as biotinylated-BCL-2 BH4 SAHBA) were “specifically interacted” and “specifically immunoprecipitated”, respectively. At Recombinant BAX [7], the “differences in relative uptake of BIM SAHB-treated BAX compared to BAX alone” value is “complete suppression; also recorded: can block the changes in BAX conformation”.
As to `CN[C@@H]1C[C@H]2O[C@@](C)([C@@H]1OC)n1c3ccccc3c3c4c(c5c6ccccc6n2c5c31)C(=O)NC4` [staurosporine], the “apoptosis of transfected HeLa cells” value in data set [8] is “induces apoptosis”.
